Earlier results, collected in US20240398838A1 (priority 2023, published 2024).
Square brackets hold non-standard residues; d marks the D form. Peptide text beside a SMILES is read from it. Cit = NC(=O)NCCC[C@H](N)C(=O)O

What was measured:
[1] = tested on: leukemia cells of two cultured leukemia cell lines; settings: in vitro
[2] = compared to α-tocopherol = 1.0
[3] = topical, concentrations 0.5-5%
[4] = arthritic subjects
[5] = target: CB2 receptor (Homo sapiens, UniProt P34972)
[6] = tested on: candida species
[7] = tested on: ticks and mosquitoes; settings: compared with DEET
[8] = in vivo
[9] = topical, within four weeks of treatment
[10] = compared to placebo
[11] = even when dietary intake occurs in equal portions
[12] = tested on: AKT1 gene
[13] = patients who did not respond to traditional antidepressant medications
[14] = tested on: wide dynamic range neurons in the ventroposterolateral nucleus of the thalamus; settings: in vivo
[15] = mice with colitis
[16] = in vivo; remark: listed apart in the source
[17] = not given; remark: listed apart in the source
[18] = individuals with metabolic syndrome
[19] = tested on: herpes simplex virus type 1

Chain of CB2 receptor (P34972 whole entry): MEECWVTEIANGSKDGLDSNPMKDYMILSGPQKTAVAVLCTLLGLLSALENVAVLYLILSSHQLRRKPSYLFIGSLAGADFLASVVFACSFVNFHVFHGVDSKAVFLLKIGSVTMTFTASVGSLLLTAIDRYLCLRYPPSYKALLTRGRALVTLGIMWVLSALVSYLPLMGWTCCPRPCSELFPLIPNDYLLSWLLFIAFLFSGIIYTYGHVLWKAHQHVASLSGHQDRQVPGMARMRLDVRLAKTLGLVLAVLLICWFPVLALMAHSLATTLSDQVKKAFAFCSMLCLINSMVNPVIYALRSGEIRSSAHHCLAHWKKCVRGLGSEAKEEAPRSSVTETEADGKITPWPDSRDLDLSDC

CC12CCC(CC1)C(C)(C)O2 [eucalyptol, 1,8-epoxy-p-menthane]
killing of leukemia cells [1]: able to kill

Cc1cc(O)c(C)c2c1O[C@](C)(CCC[C@H](C)CCC[C@H](C)CCCC(C)C)CC2 [β-tocopherol]
relative biological activity [2]: 0.5

C=CCCCCCCCCC(=O)N[C@@H](Cc1ccccc1)C(=O)O [UP, Undecylenoyl phenylalanine]
time of treatment to skin lightening effects [3]: ≥ 7 days

C/C(=C\CO)CCC[C@H](C)CCC[C@H](C)CCCC(C)C [Phytol]
solubility: nearly insoluble in water, but soluble in most organic solvents

C=C1CC/C=C(\C)CC[C@@H]2[C@@H]1CC2(C)C [β-caryophyllene]
swelling of joints and lymph nodes [4]: reduced swelling of joints and lymph nodes | activity at CB2 receptor [5]: functional CB2 agonist

Cc1ccc(C(C)C)cc1 [p-cymene, 1-isopropyl-4-methylbenzene]
antifungal activity [6]: strong antifungal activity

C=C(C)[C@@H]1CCC2=CCC[C@@H](C)[C@]2(C)C1 [Valencene]
toxicity to ticks and mosquitoes [7]: toxic to ticks and mosquitoes at lesser concentrations than DEET

HGH: hormone comprising a peptide chain that is synthesized in the pituitary gland
biological half-life [8]: 10-20 minutes

CC[C@H](C)[C@H](NC(=O)[C@H](CC(=O)O)NC(=O)[C@@H](N)CCCCN)C(=O)N[C@@H](CCCNC(N)=O)C(N)=O [Tripeptide-10 citrulline] (H-KDI[Cit]-NH2)
improve suppleness [9]: ≤ 54%

C/C=C1\[C@H]2C=C(C)C[C@]1(N)c1ccc(=O)[nH]c1C2 [Huperzine A]
memory recall and cognitive function [10]: significant improvements

Cc1c(O)cc2c(c1C)O[C@](C)(CCC[C@H](C)CCC[C@H](C)CCCC(C)C)CC2 [γ-tocopherol]
concentration in vivo relative to α-tocopherol [11]: roughly 10% | relative biological activity [2]: 0.1

CC1=CCC(=C(C)C)CC1 [Terpinolene]
expression of the AKT1 gene [12]: markedly reduces

CN1c2c([nH]c(N)nc2=O)NCC1CNc1ccc(C(=O)N[C@@H](CCC(=O)O)C(=O)O)cc1 (some centres unmarked) [5-MTHF, 5-methyltetrahydrofolate]
symptoms of depression [13]: improved symptoms of depression

CCCCCc1cc(O)c2c(c1)OC(C)(C)C1CCC(C)=CC21 (centres unmarked) [THC, Δ-9-tetrahydrocannabinol]
power in mediating pain relative to morphine [14]: ten times more powerful than morphine | modulation of the gut microbiome [15]: ability to modulate the gut microbiome

CCNC(=O)CC[C@H](N)C(=O)O [Theanine]
dose considered safe and well-tolerated [16]: up to 400 mg per day

Cc1c(C)c2c(c(C)c1O)CC[C@@](C)(CCC[C@H](C)CCC[C@H](C)CCCC(C)C)O2 [α-tocopherol]
blood plasma concentration of F2-isoprostane ([17]; 1600-3200 IU/day): significantly lower | reducing the risk of coronary disease ([17]; doses up to 400 IU/day): up to 34% | reduce the risk of developing neurodegenerative diseases such as Alzheimer's Syndrome or dementia ([17]; doses up to 400 IU/day, controlled trials): ≤ 24%

Cc1cc(O)cc2c1O[C@](C)(CCC[C@H](C)CCC[C@H](C)CCCC(C)C)CC2 [δ-tocopherol]
markers of inflammation in the blood [18]: reduced markers of inflammation | relative biological activity [2]: 0.03

CC1(C)[C@@H]2CC[C@@]1(C)[C@@H](O)C2 [Isoborneol]
inhibition of herpes simplex virus type 1 [19]: potent inhibitor

C=C(C)[C@@H]1CCC(C)=C[C@H]1c1c(O)cc(CCCCC)cc1O [CBD, cannabidiol]
modulation of the gut microbiome [15]: ability to modulate the gut microbiome

CC(C)=CCC[C@](C)(O)[C@@H]1CC=C(C)CC1 [A-bisabolol, α-bisabolol]
antifungal activity [6]: potent inhibitor
